What was measured:
[1] = system: traumatic or chronic wounds
[2] = system: acute traumatic or chronic wounds; assay: Clinical study on 6 dogs with acute traumatic or chronic wounds with delayed healing; type: in vivo
Procedure: A clinical study of the effect of the combination used in the present invention was carried out on 6 dogs carrying inflammatory pathological conditions having led to acute traumatic or chronic wounds caused by lesion due to scratching with delayed healing.
The composition of the invention was applied in spray lotion form, twice a day, directly onto the wound to be treated. The results were observed 1 (D1), 2(D2), 3(D3), 5(D5) and 7(D7) days after the 1st application.

Nc1ccc(S(=O)(=O)Nc2ncccn2)cc1 [sulfadiazine]
Effectiveness on healing [1]: not very effective | Rapidity of response to the applications ([2]; acute or chronic wounds, observed most commonly): such a rapid response is never observed | Effectiveness of treatments carried out previously ([2]; the 6 dogs, before the study): ineffective

— patent publication US20140271881A1, “ANTISEPTIC COMPOSITION” (priority 2011, published 2014)
